In paper PMC11149885 (PLOS ONE, 2024):
Several values for one entry are separate records, joined by “and”; a condition that tells them apart may be missing. Equal values may be shown once. Read-outs that look alike come from different tables or passages of the source.

Experiments:
FGFR2 = target: T1, FGFR2 (Homo sapiens, UniProt P21802); assay: HotSpot kinase screen; type: biochemical; conditions: 10μM ATP
T1 construct: purchased Reaction Biology Corporation (contract assay)
Experimental: (§1) Measurement of kinase activity was performed by Reaction Biology Corporation (Reaction Biology Corporation, Malvern, PA), using the HotSpot™ assay. The screen focused on RTKs reported in the literature to play a major role in the regulation of angiogenesis (VEGFR1, VEGFR2, and VEGFR3; fibroblast growth factor receptor [FGFR] 1, 2, and 3; and platelet-derived growth factor receptor beta [PDGFRβ]) as well as an RTK essential for maintaining blood vessel stability (TIE2). For the profiling, specific kinase/substrate pairs and required cofactors were prepared in a reaction buffer (20mM Hepes [pH 7.5], 10mM MgCl2, 1mM EGTA, 0.02% Brij35, 0.02 mg/mL BSA, 0.1mM Na3VO4, 2mM DTT, 1% dimethyl sulfoxide [DMSO]). TKI compounds were diluted to 10μM and 1μM concentrations for the screens and after addition to the reaction buffer incubated for 20 minutes, followed by the addition of a mixture of ATP (Sigma, St. Louis, MO) and ^33P-ATP (Perkin Elmer, Waltham, MA) to a final ATP concentration of 10μM. Reactions were carried out at room temperature for 2 hours, followed by spotting of the reactions onto P81 ion exchange filter paper (Whatman Inc., Piscataway, NJ). Unbound phosphate was removed by extensive washing of the filters. […] Kinome TREEspot images representing levels of inhibition were prepared using Kinome Mapper (https://www.reactionbiology.com/resources/tools/kinase-mapper).

VEGFR3 = target: T2, VEGFR3 (Homo sapiens, UniProt P35916); assay: HotSpot kinase screen; type: biochemical; conditions: 10μM ATP
T2 construct: purchased Millipore Corporation (Dundee, Scotland) or Reaction Biology Corporation (contract assay)
Experimental: as §1

VEGFR2 [1] = target: T3, VEGFR2 (Homo sapiens, UniProt P35968); assay: Ten-dose IC50 measurement; type: biochemical; conditions: 10μM ATP
T3 construct: purchased Millipore Corporation (Dundee, Scotland) or Reaction Biology Corporation (contract assay)

[2] = system: VEGF-A–induced sprouting of HUVECs; assay: HUVEC spheroid sprouting assay; type: cell-based, human; conditions: for cumulative sprout length per spheroid (CSL), mean: 25 ng/mL VEGF-165, 24 hours
Experimental: The three TKI compounds were tested by Reaction Biology Europe (Freiburg, Germany) in the spheroid-based cellular angiogenesis assay to determine their effect on VEGF-A–induced sprouting of HUVECs. Primary HUVECs from pooled donors at passage 3 to 4 (PromoCell, Heidelberg, Germany) were grown in endothelial cell growth and basal medium (ECGM/ECBM, PromoCell). Test compounds were prepared as 100-fold concentrated stock solutions in DMSO and pre-diluted in basal medium. HUVECs were stimulated using 25 ng/mL VEGF-165 (Reaction Biology Europe, Freiburg, Germany) pre-diluted in basal medium.
Spheroids were prepared as described by pipetting 400 HUVECs in a hanging drop on plastic dishes to allow overnight spheroid aggregation. Fifty HUVEC spheroids were seeded in 0.9 mL of a collagen gel and pipetted into individual wells of a 24-well plate to allow polymerization. Test compounds and VEGF-165 were added after 30 minutes by pipetting 100 μL of a ten-fold concentrated solution onto the polymerized gel. Plates were incubated at 37°C for 24 hours, and cells were fixed by adding 4% paraformaldehyde (Roth, Karlsruhe, Germany). Sprouting intensity of HUVEC spheroids treated with the test samples was quantitated using an image analysis system to determine the cumulative sprout length (CSL) per spheroid. Images of single spheroids were captured using an inverted microscope and the digital imaging software NIS-Elements BR 3.0 (Nikon). Spheroid pictures were uploaded to Wimasis (www.wimasis.com) for image analysis. The CSL of each spheroid was determined using the imaging analysis tool WimSprout. The mean CSL of ten randomly selected spheroids was analyzed as an individual data point.

VEGFR2 [3] = target: T3, VEGFR2; assay: Previously reported IC50 (literature); type: biochemical; conditions: nM value converted, S2 Fig legend
[4] = 634 ug, cited from earlier work
VEGFR1 = VEGFR1 (Homo sapiens, UniProt P17948); assay: Ten-dose IC50 measurement
TIE2 = TIE2 (Homo sapiens, UniProt Q02763); assay: Ten-dose IC50 measurement
[5] = system: VEGF-induced angiogenesis on the CAM; assay: Gelatin sponge chick chorioallantoic membrane (CAM) assay

T3 sequence (P35968 20-1356): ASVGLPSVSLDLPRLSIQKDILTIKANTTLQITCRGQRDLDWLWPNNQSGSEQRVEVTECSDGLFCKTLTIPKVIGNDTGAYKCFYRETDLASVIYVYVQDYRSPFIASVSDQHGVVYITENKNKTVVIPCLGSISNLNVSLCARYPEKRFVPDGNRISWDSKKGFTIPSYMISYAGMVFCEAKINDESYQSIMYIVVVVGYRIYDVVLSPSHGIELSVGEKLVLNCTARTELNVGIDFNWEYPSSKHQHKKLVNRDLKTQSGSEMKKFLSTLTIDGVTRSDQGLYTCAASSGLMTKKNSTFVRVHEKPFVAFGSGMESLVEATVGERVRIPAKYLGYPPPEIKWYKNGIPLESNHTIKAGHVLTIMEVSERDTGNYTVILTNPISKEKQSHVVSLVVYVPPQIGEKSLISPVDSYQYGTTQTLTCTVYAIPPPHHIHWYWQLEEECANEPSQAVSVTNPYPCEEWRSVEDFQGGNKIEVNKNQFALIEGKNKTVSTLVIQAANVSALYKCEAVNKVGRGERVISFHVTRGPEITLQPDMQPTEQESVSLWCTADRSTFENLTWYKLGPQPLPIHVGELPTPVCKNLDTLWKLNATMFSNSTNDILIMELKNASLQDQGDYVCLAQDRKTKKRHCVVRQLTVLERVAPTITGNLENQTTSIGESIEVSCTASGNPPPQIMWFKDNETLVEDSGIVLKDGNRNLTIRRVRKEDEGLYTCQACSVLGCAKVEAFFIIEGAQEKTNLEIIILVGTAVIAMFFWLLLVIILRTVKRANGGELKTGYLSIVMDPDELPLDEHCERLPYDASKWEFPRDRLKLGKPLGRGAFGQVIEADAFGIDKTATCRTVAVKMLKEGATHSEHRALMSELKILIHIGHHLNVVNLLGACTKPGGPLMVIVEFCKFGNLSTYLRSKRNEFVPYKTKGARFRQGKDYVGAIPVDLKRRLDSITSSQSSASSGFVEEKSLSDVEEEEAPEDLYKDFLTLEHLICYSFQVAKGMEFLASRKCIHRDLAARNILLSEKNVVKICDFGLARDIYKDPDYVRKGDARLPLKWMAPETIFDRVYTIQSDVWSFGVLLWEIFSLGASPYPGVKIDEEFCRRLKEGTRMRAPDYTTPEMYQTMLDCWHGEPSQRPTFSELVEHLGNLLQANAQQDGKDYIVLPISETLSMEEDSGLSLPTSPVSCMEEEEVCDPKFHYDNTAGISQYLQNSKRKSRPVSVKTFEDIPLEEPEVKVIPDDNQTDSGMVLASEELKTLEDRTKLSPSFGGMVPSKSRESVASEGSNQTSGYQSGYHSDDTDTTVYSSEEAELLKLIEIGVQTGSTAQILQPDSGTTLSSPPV
Sequence of TIE2 (Q02763 23-1124): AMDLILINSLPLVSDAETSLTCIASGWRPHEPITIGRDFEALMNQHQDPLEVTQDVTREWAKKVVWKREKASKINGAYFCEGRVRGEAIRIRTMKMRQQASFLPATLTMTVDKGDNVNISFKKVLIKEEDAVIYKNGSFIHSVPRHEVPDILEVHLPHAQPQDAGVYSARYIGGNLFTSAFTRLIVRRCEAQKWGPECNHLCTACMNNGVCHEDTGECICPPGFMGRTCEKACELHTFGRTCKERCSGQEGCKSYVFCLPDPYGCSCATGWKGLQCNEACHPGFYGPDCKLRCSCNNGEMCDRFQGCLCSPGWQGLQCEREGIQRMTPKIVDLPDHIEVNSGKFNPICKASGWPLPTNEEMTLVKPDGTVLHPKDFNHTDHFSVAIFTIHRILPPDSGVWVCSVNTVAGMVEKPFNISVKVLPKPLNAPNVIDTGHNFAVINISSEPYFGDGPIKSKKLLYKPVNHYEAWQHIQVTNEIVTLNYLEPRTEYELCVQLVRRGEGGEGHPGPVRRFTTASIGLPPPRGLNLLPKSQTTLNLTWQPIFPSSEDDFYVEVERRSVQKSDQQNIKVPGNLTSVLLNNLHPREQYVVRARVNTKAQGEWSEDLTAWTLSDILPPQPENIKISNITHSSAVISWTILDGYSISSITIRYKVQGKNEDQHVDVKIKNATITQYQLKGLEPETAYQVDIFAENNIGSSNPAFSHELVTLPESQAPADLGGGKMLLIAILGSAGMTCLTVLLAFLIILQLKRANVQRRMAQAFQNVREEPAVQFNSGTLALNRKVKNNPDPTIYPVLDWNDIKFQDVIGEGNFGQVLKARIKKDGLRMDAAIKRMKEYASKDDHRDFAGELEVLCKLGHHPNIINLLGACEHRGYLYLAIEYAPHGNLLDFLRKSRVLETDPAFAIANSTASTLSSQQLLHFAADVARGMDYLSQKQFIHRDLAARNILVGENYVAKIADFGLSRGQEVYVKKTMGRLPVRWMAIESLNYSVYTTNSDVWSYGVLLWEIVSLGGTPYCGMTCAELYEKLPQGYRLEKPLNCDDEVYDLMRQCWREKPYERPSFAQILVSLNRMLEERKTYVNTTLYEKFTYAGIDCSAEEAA
Sequence of VEGFR1 (P17948 27-1338): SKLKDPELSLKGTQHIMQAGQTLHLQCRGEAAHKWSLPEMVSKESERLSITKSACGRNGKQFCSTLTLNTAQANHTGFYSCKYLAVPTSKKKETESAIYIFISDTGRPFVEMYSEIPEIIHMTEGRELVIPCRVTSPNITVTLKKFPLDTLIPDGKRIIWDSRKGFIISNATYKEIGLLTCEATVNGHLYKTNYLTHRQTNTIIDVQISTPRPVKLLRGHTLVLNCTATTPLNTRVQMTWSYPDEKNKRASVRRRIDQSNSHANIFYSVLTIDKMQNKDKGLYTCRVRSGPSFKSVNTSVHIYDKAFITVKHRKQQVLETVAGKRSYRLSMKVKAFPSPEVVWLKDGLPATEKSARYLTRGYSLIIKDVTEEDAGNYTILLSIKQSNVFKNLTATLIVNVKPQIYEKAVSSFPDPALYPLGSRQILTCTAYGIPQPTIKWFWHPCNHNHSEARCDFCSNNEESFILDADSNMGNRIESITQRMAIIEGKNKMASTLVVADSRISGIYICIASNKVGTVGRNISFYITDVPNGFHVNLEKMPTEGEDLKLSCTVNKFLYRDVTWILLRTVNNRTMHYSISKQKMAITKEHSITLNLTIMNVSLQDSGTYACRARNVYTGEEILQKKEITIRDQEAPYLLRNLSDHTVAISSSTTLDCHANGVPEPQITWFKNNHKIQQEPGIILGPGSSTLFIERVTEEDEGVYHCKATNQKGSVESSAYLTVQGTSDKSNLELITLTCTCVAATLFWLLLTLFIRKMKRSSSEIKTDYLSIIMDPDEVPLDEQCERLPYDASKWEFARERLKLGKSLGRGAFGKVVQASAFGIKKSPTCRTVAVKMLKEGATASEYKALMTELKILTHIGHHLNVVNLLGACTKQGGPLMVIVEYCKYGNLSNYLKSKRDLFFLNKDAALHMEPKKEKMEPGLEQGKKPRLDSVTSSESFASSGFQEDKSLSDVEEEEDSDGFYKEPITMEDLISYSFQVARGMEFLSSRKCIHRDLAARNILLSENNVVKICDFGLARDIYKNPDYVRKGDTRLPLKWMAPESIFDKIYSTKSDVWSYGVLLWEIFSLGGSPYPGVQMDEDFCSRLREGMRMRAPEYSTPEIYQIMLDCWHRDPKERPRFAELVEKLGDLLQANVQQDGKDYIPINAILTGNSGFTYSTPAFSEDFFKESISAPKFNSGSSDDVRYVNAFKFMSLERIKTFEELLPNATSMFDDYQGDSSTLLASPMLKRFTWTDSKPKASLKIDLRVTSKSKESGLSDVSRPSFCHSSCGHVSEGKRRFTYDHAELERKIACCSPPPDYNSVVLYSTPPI
T2 sequence (P35916 25-1363): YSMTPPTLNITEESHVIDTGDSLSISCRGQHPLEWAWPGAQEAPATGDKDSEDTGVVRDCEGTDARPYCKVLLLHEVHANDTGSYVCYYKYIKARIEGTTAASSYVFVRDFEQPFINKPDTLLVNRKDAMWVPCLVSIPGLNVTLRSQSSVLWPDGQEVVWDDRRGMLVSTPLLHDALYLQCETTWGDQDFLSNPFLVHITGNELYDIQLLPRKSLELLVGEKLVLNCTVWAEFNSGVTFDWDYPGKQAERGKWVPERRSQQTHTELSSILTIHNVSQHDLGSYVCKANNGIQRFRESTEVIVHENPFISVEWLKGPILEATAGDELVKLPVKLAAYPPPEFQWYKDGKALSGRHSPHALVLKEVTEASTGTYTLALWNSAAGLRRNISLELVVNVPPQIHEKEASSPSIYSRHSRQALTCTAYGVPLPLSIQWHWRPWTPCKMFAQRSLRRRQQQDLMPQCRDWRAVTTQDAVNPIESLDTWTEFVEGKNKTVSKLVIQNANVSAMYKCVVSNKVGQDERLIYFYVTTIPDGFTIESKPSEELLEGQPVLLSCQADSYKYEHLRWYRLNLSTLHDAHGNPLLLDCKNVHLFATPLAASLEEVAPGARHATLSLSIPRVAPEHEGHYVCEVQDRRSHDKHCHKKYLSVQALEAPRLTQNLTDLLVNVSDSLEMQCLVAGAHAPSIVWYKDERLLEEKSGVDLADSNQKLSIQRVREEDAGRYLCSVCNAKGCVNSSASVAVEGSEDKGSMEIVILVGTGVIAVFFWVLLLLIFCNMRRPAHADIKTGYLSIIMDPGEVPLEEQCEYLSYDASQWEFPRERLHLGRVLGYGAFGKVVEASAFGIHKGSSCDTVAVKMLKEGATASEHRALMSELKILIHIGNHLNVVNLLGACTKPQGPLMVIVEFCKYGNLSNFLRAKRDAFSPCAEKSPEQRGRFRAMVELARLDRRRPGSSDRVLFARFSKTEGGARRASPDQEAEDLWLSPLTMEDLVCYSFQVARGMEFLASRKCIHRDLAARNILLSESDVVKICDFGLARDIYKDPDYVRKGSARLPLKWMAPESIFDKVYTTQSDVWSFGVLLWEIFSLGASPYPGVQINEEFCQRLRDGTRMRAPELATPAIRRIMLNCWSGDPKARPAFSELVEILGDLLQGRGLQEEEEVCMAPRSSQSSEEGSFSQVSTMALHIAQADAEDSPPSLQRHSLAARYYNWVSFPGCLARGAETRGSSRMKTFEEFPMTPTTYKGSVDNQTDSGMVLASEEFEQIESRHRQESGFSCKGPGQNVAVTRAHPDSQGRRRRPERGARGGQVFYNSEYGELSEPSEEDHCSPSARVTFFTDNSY

Cc1[nH]c(/C=C2\C(=O)Nc3ccc(F)cc32)c(C)c1C(=O)N[C@H]1CCN(C(=O)N(C)C)C1 [Vorolanib]
Avg % Inhibition FGFR2 (FGFR2; 1uM TKI): 56.64% | Avg % Inhibition FGFR2 (FGFR2; 10uM TKI): 90.82% | Avg % Inhibition VEGFR3 (VEGFR3; 1uM TKI): 90.14% | Avg % Inhibition VEGFR3 (VEGFR3; 10uM TKI): 98.55% | IC50 (VEGFR2 [1]; S1 Dataset, read-out: IC50 VEGFR2): 7.61e-08 M | %Activity VEGFR2 (VEGFR2 [1]; 1.00E-05 M TKI): 7.53% | %Activity VEGFR2 (VEGFR2 [1]; 1.11E-06 M TKI): 15.96% | %Activity VEGFR2 (VEGFR2 [1]; 1.23E-07 M TKI): 39.66% | %Activity VEGFR2 (VEGFR2 [1]; 1.37E-08 M TKI): 76.92% | %Activity VEGFR2 (VEGFR2 [1]; 1.52E-09 M TKI): 90.70% | %Activity VEGFR2 (VEGFR2 [1]; 3.33E-06 M TKI): 8.61% | %Activity VEGFR2 (VEGFR2 [1]; 3.70E-07 M TKI): 24.16% | %Activity VEGFR2 (VEGFR2 [1]; 4.12E-08 M TKI): 62.72% | %Activity VEGFR2 (VEGFR2 [1]; 4.57E-09 M TKI): 90.18% | %Activity VEGFR2 (VEGFR2 [1]; 5.08E-10 M TKI): 99.81% | IC50 (VEGFR2 [1]; Fig 3A inset, unit inferred, plot axes in (M), read-out: Compound IC50 data for VEGFR-2: IC50): 7.61e-08 M | cumulative sprout length per spheroid (CSL), mean ([2]; 1.00E-05 M TKI): 144 | cumulative sprout length per spheroid (CSL), mean ([2]; 1.00E-06 M TKI): 242 | cumulative sprout length per spheroid (CSL), mean ([2]; 1.00E-07 M TKI): 455 | cumulative sprout length per spheroid (CSL), mean ([2]; 3.00E-06 M TKI): 269 | cumulative sprout length per spheroid (CSL), mean ([2]; 3.00E-07 M TKI): 241 | cumulative sprout length per spheroid (CSL), mean ([2]; 3.00E-08 M TKI): 992 | vessel sprouting (representative spheroid images) ([2]; highest test concentration of 1×10^–5M): zero vessel sprouting | IC50 (VEGFR2 [3]): 52.3 nM | Concentration, choroid ([4]; 2 days post-treatment): 124 µg/g | Concentration, choroid ([4]; 14 days post-treatment): 52 µg/g | Concentration, choroid ([4]; 29 days post-treatment): 74 µg/g | Concentration, choroid ([4]; 62 days post-treatment): 206 µg/g | Concentration, choroid ([4]; 120 days post-treatment): 109 µg/g | Concentration, choroid ([4]; 182 days post-treatment): 200 µg/g | Concentration, choroid ([4]; 240 days post-treatment): 293 µg/g | Concentration, retina ([4]; 2 days post-treatment): 208.6 µg/g | Concentration, retina ([4]; 14 days post-treatment): 223.3 µg/g | Concentration, retina ([4]; 29 days post-treatment): 143.1 µg/g | Concentration, retina ([4]; 62 days post-treatment): 136.3 µg/g | Concentration, retina ([4]; 120 days post-treatment): 434.5 µg/g | Concentration, retina ([4]; 182 days post-treatment): 243.2 µg/g | Concentration, retina ([4]; 240 days post-treatment): 122.5 µg/g | %Activity VEGFR1 (VEGFR1; 1.00E-05 M TKI, 10μM ATP): 15.82% | %Activity VEGFR1 (VEGFR1; 1.11E-06 M TKI, 10μM ATP): 42.07% | %Activity VEGFR1 (VEGFR1; 1.37E-08 M TKI, 10μM ATP): 89.38% | %Activity VEGFR1 (VEGFR1; 1.52E-09 M TKI, 10μM ATP): 85.26% | %Activity VEGFR1 (VEGFR1; 3.33E-06 M TKI, 10μM ATP): 22.84% | %Activity VEGFR1 (VEGFR1; 3.70E-07 M TKI, 10μM ATP): 64.45% | %Activity VEGFR1 (VEGFR1; 4.12E-08 M TKI, 10μM ATP): 79.63% | %Activity VEGFR1 (VEGFR1; 4.57E-09 M TKI, 10μM ATP): 88.85% | IC50 (VEGFR1; Compound IC50 data for VEGFR-1: IC50, Fig 3A inset, unit inferred, plot axes in (M), 10μM ATP): 9.44e-07 M | IC50 (VEGFR1; IC50 VEGFR1, 10μM ATP, S1 Dataset): 9.44e-07 M | %Activity TIE2 (TIE2; 1.00E-05 M TKI, 10μM ATP): 69.30% | %Activity TIE2 (TIE2; 1.11E-06 M TKI, 10μM ATP): 100.16% | %Activity TIE2 (TIE2; 1.37E-08 M TKI, 10μM ATP): 100.50% | %Activity TIE2 (TIE2; 1.52E-09 M TKI, 10μM ATP): 103.72% | %Activity TIE2 (TIE2; 3.33E-06 M TKI, 10μM ATP): 83.50% | %Activity TIE2 (TIE2; 3.70E-07 M TKI, 10μM ATP): 100.13% | %Activity TIE2 (TIE2; 4.12E-08 M TKI, 10μM ATP): 99.77% | %Activity TIE2 (TIE2; 4.57E-09 M TKI, 10μM ATP): 100.65% | %Activity TIE2 (TIE2; 5.08E-10 M TKI, 10μM ATP): 98.18% | IC50 (TIE2; IC50 TIE2, 10μM ATP, S1 Dataset): 20.7 µM | IC50 (TIE2; TIE2 IC50, determined by Reaction Biology (US), 10μM ATP): 20.7 µM | Angiogenesis - Vessel number, Mean ([5]; TKI at 200 x VEGFR2 IC50): 8.7 | Angiogenesis - Vessel number, individual egg ([5]; TKI at 200 x VEGFR2 IC50, one value per egg): 1.33 and 10.33 and 14 and 8.33 and 9.33 and 9 | reduction of the number of blood vessels perfusing the sponges vs negative control ([5]; TKI at 200× VEGFR2 IC50 dose): 37.1% | reduction of the number of blood vessels perfusing the sponges vs negative control ([5]; TKI at VEGFR2 IC50 dose): 39.9% | Angiogenesis - Vessel thickness score, Mean ([5]; TKI at VEGFR2 IC50 dose, score 0-3): 1.2 | Angiogenesis - Vessel thickness score, individual egg ([5]; TKI at VEGFR2 IC50 dose, score 0-3, one value per egg): 0 and 1.67 and 1.33 and 1 and 0.67 and 2.33
